Source: ChEMBL document CHEMBL5303573, “Mapping human microbiome drug metabolism by gut bacteria and their genes” (Nature, 2019)
One block for each compound: values may come before it.

How the values were obtained:
[1] = The drug is tested on Clostridium hathewayi strain: DSM13479 for biotransformation. The drug concentrations were measured before and after a 12-h incubation by liquid-chromatography-coupled mass spectrometry (LC–MS); conditions: hungatella hathewayi, 2 µM
[2] = The drug is tested on Clostridium ramosum strain: DSM1402 for biotransformation. The drug concentrations were measured before and after a 12-h incubation by liquid-chromatography-coupled mass spectrometry (LC–MS); conditions: thomasclavelia ramosa, 2 µM
[3] = The drug is tested on Clostridium sporogenes strain: ATCC15579 for biotransformation. The drug concentrations were measured before and after a 12-h incubation by liquid-chromatography-coupled mass spectrometry (LC–MS); conditions: 2 µM
[4] = The drug is tested on Clostridium asparagiforme strain: DSM15981 for biotransformation. The drug concentrations were measured before and after a 12-h incubation by liquid-chromatography-coupled mass spectrometry (LC–MS); assay type: ADME; parameters: dose 2 uM, timepoint 0 vs 12 hours; conditions: enterocloster asparagiformis, 2 µM
[5] = The drug is tested on Clostridium scindens strain: ATCC35704 for biotransformation. The drug concentrations were measured before and after a 12-h incubation by liquid-chromatography-coupled mass spectrometry (LC–MS); conditions: 2 µM
[6] = The drug is tested on Clostridium spiroforme strain: DSM1552 for biotransformation. The drug concentrations were measured before and after a 12-h incubation by liquid-chromatography-coupled mass spectrometry (LC–MS); conditions: thomasclavelia spiroformis, 2 µM
[7] = The drug is tested on Clostridium symbiosum strain: ATCC14940 for biotransformation. The drug concentrations were measured before and after a 12-h incubation by liquid-chromatography-coupled mass spectrometry (LC–MS); conditions: 2 µM
[8] = clostridioides difficile, 12 h, 2 µM
[9] = enterocloster bolteae, 12 h, 2 µM
[10] = The drug is tested on Bifidobacterium ruminantium strain: fecal isolate for biotransformation. The drug concentrations were measured before and after a 12-h incubation by liquid-chromatography-coupled mass spectrometry (LC–MS); conditions: 2 µM
[11] = The drug is tested on Subdoligranulum variabile strain: DSM15176 for biotransformation. The drug concentrations were measured before and after a 12-h incubation by liquid-chromatography-coupled mass spectrometry (LC–MS); conditions: 2 µM
[12] = The drug is tested on Collinsella aerofaciens strain: ATCC25986 for biotransformation. The drug concentrations were measured before and after a 12-h incubation by liquid-chromatography-coupled mass spectrometry (LC–MS); conditions: 2 µM
[13] = The drug is tested on Anaerotruncus colihominis strain: DSM17241 for biotransformation. The drug concentrations were measured before and after a 12-h incubation by liquid-chromatography-coupled mass spectrometry (LC–MS); conditions: 2 µM
[14] = bacteroides stercoris, 12 h, 2 µM
Description: The drug is tested on Bacteroides stercoris strain: ATCC43183 for biotransformation. The drug concentrations were measured before and after a 12-h incubation by liquid-chromatography-coupled mass spectrometry (LC–MS)

[15] = bacteroides thetaiotaomicron, 12 h, 2 µM
Description: The drug is tested on Bacteroides thetaiotaomicron strain: 7330 for biotransformation. The drug concentrations were measured before and after a 12-h incubation by liquid-chromatography-coupled mass spectrometry (LC–MS)

[16] = The drug is tested on Bacteroides fragilis strain: HMW610 for biotransformation. The drug concentrations were measured before and after a 12-h incubation by liquid-chromatography-coupled mass spectrometry (LC–MS); conditions: 2 µM
[17] = The drug is tested on Bacteroides finegoldii strain: DSM17565 for biotransformation. The drug concentrations were measured before and after a 12-h incubation by liquid-chromatography-coupled mass spectrometry (LC–MS); conditions: 2 µM
[18] = The drug is tested on Bacteroides fragilis strain: ATCC43859 for biotransformation. The drug concentrations were measured before and after a 12-h incubation by liquid-chromatography-coupled mass spectrometry (LC–MS); conditions: 2 µM
[19] = bacteroides fragilis, 12 h, 2 µM
Description: The drug is tested on Bacteroides fragilis strain: NCTC 9343 for biotransformation. The drug concentrations were measured before and after a 12-h incubation by liquid-chromatography-coupled mass spectrometry (LC–MS)

[20] = The drug is tested on Bifidobacterium longum subsp. Infantis strain: CCUG52486 for biotransformation. The drug concentrations were measured before and after a 12-h incubation by liquid-chromatography-coupled mass spectrometry (LC–MS); conditions: 2 µM
[21] = The drug is tested on Bacteroides fragilis strain: HMW615 for biotransformation. The drug concentrations were measured before and after a 12-h incubation by liquid-chromatography-coupled mass spectrometry (LC–MS); conditions: 2 µM
[22] = The drug is tested on Providencia rettgeri strain: DSM1131 for biotransformation. The drug concentrations were measured before and after a 12-h incubation by liquid-chromatography-coupled mass spectrometry (LC–MS); assay type: ADME; parameters: dose 2 uM, timepoint 0 vs 12 hours; conditions: 2 µM
[23] = The drug is tested on Bacteroides sp. WH2 strain: WH2 for biotransformation. The drug concentrations were measured before and after a 12-h incubation by liquid-chromatography-coupled mass spectrometry (LC–MS); conditions: bacteroides sp. wh2, 12 h, 2 µM
[24] = The drug is tested on Bacteroides pectinophilus strain: ATCC43243 for biotransformation. The drug concentrations were measured before and after a 12-h incubation by liquid-chromatography-coupled mass spectrometry (LC–MS); conditions: 2 µM
[25] = segatella copri, 12 h, 2 µM
Description: The drug is tested on Prevotella copri strain: DSM18205 for biotransformation. The drug concentrations were measured before and after a 12-h incubation by liquid-chromatography-coupled mass spectrometry (LC–MS)

[26] = bacteroides intestinalis, 12 h, 2 µM
Description: The drug is tested on Bacteroides intestinalis strain: DSM17393 for biotransformation. The drug concentrations were measured before and after a 12-h incubation by liquid-chromatography-coupled mass spectrometry (LC–MS)

[27] = The drug is tested on Bacteroides uniformis strain: ATCC8492 for biotransformation. The drug concentrations were measured before and after a 12-h incubation by liquid-chromatography-coupled mass spectrometry (LC–MS); conditions: 2 µM
[28] = The drug is tested on Bacteroides cellulosilyticus strain: DSM14838 for biotransformation. The drug concentrations were measured before and after a 12-h incubation by liquid-chromatography-coupled mass spectrometry (LC–MS); conditions: 2 µM
[29] = The drug is tested on Edwardsiella tarda strain: ATCC23685 for biotransformation. The drug concentrations were measured before and after a 12-h incubation by liquid-chromatography-coupled mass spectrometry (LC–MS); conditions: 2 µM
[30] = The drug is tested on Blautia luti strain: DSM14534 for biotransformation. The drug concentrations were measured before and after a 12-h incubation by liquid-chromatography-coupled mass spectrometry (LC–MS); assay type: ADME; parameters: dose 2 uM, timepoint 0 vs 12 hours; conditions: 2 µM
[31] = bacteroides fragilis, 12 h, 2 µM; remark: listed apart in the source
Description: The drug is tested on Bacteroides fragilis strain: DS-208 for biotransformation. The drug concentrations were measured before and after a 12-h incubation by liquid-chromatography-coupled mass spectrometry (LC–MS)

[32] = The drug is tested on Collinsella intestinalis strain: DSM13280 for biotransformation. The drug concentrations were measured before and after a 12-h incubation by liquid-chromatography-coupled mass spectrometry (LC–MS); conditions: 2 µM
[33] = The drug is tested on Bacteroides caccae strain: ATCC43185 for biotransformation. The drug concentrations were measured before and after a 12-h incubation by liquid-chromatography-coupled mass spectrometry (LC–MS); conditions: 2 µM
[34] = limosilactobacillus reuteri cf48-3a, 12 h, 2 µM
Description: The drug is tested on Lactobacillus reuteri CF48-3A strain: BEI HM-102 for biotransformation. The drug concentrations were measured before and after a 12-h incubation by liquid-chromatography-coupled mass spectrometry (LC–MS)

[35] = The drug is tested on Providencia stuartii strain: ATCC25827 for biotransformation. The drug concentrations were measured before and after a 12-h incubation by liquid-chromatography-coupled mass spectrometry (LC–MS); conditions: 2 µM
[36] = The drug is tested on Eubacterium rectale strain: ATCC33656 for biotransformation. The drug concentrations were measured before and after a 12-h incubation by liquid-chromatography-coupled mass spectrometry (LC–MS); conditions: agathobacter rectalis, 2 µM
[37] = bifidobacterium adolescentis, 12 h, 2 µM
Description: The drug is tested on Bifidobacterium adolescentis strain: ATCC 15703 for biotransformation. The drug concentrations were measured before and after a 12-h incubation by liquid-chromatography-coupled mass spectrometry (LC–MS)

[38] = parabacteroides distasonis, 12 h, 2 µM
Description: The drug is tested on Parabacteroides distasonis strain: ATCC8503 for biotransformation. The drug concentrations were measured before and after a 12-h incubation by liquid-chromatography-coupled mass spectrometry (LC–MS)

[39] = bacteroides eggerthii, 12 h, 2 µM
Description: The drug is tested on Bacteroides eggerthii strain: DSM20697 for biotransformation. The drug concentrations were measured before and after a 12-h incubation by liquid-chromatography-coupled mass spectrometry (LC–MS)

[40] = parabacteroides johnsonii, 12 h, 2 µM
Description: The drug is tested on Parabacteroides johnsonii strain: DSM18315 for biotransformation. The drug concentrations were measured before and after a 12-h incubation by liquid-chromatography-coupled mass spectrometry (LC–MS)

[41] = The drug is tested on Eubacterium hallii strain: DSM3353 for biotransformation. The drug concentrations were measured before and after a 12-h incubation by liquid-chromatography-coupled mass spectrometry (LC–MS); conditions: anaerobutyricum hallii, 2 µM
[42] = anaerostipes sp., 12 h, 2 µM
Description: The drug is tested on Anaerostipes sp. strain: fecal isolate for biotransformation. The drug concentrations were measured before and after a 12-h incubation by liquid-chromatography-coupled mass spectrometry (LC–MS)

[43] = The drug is tested on Enterobacter cancerogenus strain: ATCC35316 for biotransformation. The drug concentrations were measured before and after a 12-h incubation by liquid-chromatography-coupled mass spectrometry (LC–MS); conditions: 2 µM
[44] = The drug is tested on Anaerococcus hydrogenalis strain: DSM7454 for biotransformation. The drug concentrations were measured before and after a 12-h incubation by liquid-chromatography-coupled mass spectrometry (LC–MS); conditions: 2 µM
[45] = bacteroides thetaiotaomicron, 12 h, 2 µM; remark: listed apart in the source
Description: The drug is tested on Bacteroides thetaiotaomicron strain: 3731 for biotransformation. The drug concentrations were measured before and after a 12-h incubation by liquid-chromatography-coupled mass spectrometry (LC–MS)

[46] = bacteroides fragilis, 12 h, 2 µM; remark: listed apart in the source
Description: The drug is tested on Bacteroides fragilis strain: 3397 (T10) for biotransformation. The drug concentrations were measured before and after a 12-h incubation by liquid-chromatography-coupled mass spectrometry (LC–MS)

SMILES: Br.NC(=O)C(c1ccccc1)(c1ccccc1)[C@@H]1CCN(CCc2ccc3c(c2)CCO3)C1 [DARIFENACIN HYDROBROMIDE]
Bacterial Biotransformation [1]: Compound NOT metabolized
Bacterial Biotransformation [2]: Compound NOT metabolized
Bacterial Biotransformation [3]: Compound NOT metabolized
Bacterial Biotransformation [4]: Compound NOT metabolized
Bacterial Biotransformation [5]: Compound NOT metabolized
Bacterial Biotransformation [6]: Compound NOT metabolized
Bacterial Biotransformation [7]: Compound NOT metabolized
Bacterial Biotransformation [8]: Compound NOT metabolized
Bacterial Biotransformation [9]: Compound NOT metabolized

Bacterial Biotransformation [10]: Compound metabolized
Bacterial Biotransformation [11]: Compound NOT metabolized
Bacterial Biotransformation [12]: Compound NOT metabolized
Bacterial Biotransformation [13]: Compound metabolized
Bacterial Biotransformation [14]: Compound NOT metabolized
Bacterial Biotransformation [15]: Compound NOT metabolized
Bacterial Biotransformation [16]: Compound NOT metabolized
Bacterial Biotransformation [17]: Compound NOT metabolized
Bacterial Biotransformation [18]: Compound NOT metabolized
Bacterial Biotransformation [19]: Compound metabolized
Bacterial Biotransformation [20]: Compound NOT metabolized
Bacterial Biotransformation [1]: Compound metabolized
Bacterial Biotransformation [21]: Compound NOT metabolized
Bacterial Biotransformation [22]: Compound NOT metabolized
Bacterial Biotransformation [2]: Compound NOT metabolized
Bacterial Biotransformation [23]: Compound NOT metabolized
Bacterial Biotransformation [24]: Compound metabolized
Bacterial Biotransformation [25]: Compound metabolized
Bacterial Biotransformation [26]: Compound NOT metabolized
Bacterial Biotransformation [27]: Compound metabolized
Bacterial Biotransformation [28]: Compound NOT metabolized
Bacterial Biotransformation [29]: Compound NOT metabolized
Bacterial Biotransformation [30]: Compound metabolized
Bacterial Biotransformation [31]: Compound NOT metabolized
Bacterial Biotransformation [32]: Compound NOT metabolized
Bacterial Biotransformation [33]: Compound NOT metabolized
Bacterial Biotransformation [4]: Compound metabolized
Bacterial Biotransformation [34]: Compound NOT metabolized
Bacterial Biotransformation [5]: Compound NOT metabolized
Bacterial Biotransformation [6]: Compound NOT metabolized
Bacterial Biotransformation [35]: Compound NOT metabolized
Bacterial Biotransformation [36]: Compound NOT metabolized
Bacterial Biotransformation [37]: Compound NOT metabolized
Bacterial Biotransformation [7]: Compound NOT metabolized
Bacterial Biotransformation [8]: Compound metabolized
Bacterial Biotransformation [38]: Compound NOT metabolized
Bacterial Biotransformation [39]: Compound metabolized
Bacterial Biotransformation [40]: Compound metabolized
Bacterial Biotransformation [41]: Compound NOT metabolized
Bacterial Biotransformation [42]: Compound metabolized
Bacterial Biotransformation [43]: Compound NOT metabolized
Bacterial Biotransformation [44]: Compound NOT metabolized
Bacterial Biotransformation [45]: Compound NOT metabolized
Bacterial Biotransformation [9]: Compound NOT metabolized
Bacterial Biotransformation [46]: Compound NOT metabolized
SMILES: CC(C)OC(=O)C(C)(C)Oc1ccc(C(=O)c2ccc(Cl)cc2)cc1 [FENOFIBRATE]
